In this test the test system is HUVEC. The experiment in a line: Human Umbilical Vein Endothelial Cell (HUVEC) proliferation assay (BrdU incorporation). The settings on record: VEGF-stimulated HUVEC, 72 hrs, read-out: Inhibition of HUVEC proliferation IC50. In kind it is cell-based. Here is the method: Human Umbilical Vein Endothelial Cell (HUVEC) Proliferation Assay (BrdU Incorporation) Materials
HUVEC cells and EGM-MV (Endothelial cell growth medium—microvascular) were purchased from Clonetics (San Diego, Calif.). VEGF and bFGF were purchased from R&D Systems (Minneapolis, Minn.). Anti-BrdU antibody was obtained from Chemicon International (Temecula, Calif.).
HUVECs were routinely maintained in EGM-MV medium and were used within passage 7. HUVECs were plated at a density of 2500 cells/well in M199 medium containing 5% FBS (Hyclone) in type I collagen coated plate (Becton Dickinson). The plate was incubated at 37° C. overnight. The medium was removed by aspiration, and test compounds were added to each well in a volume of 0.1 ml/well in serum-free M199 medium. Compound concentrations ranged from 1.5 nM to 30 micromolar. The plate was incubated for 30 min at 37° C. Another 0.1 ml of serum-free M199 medium containing BSA and VEGF (or bFGF) was added to give a final concentration of 0.1% BSA and 10 ng/ml VEGF (0.3 ng/ml bFGF). The plate was incubated at 37° C. for 72 hrs. BrdU was added to each well after the first 48 hrs to give a concentration of 10 micromolar. The calorimetric ELISA assay was performed according to manufacturer's (Roche Molecular Sciences) instructions, with detection by absorbance reading at 450 nm. Results were plotted as concentration of test compound vs. absorbance to give an IC50 value for inhibition of BrdU incorporation.
A general note: Incorporation of labelled thymidine or its analogues reports DNA synthesis.

Where a name gives a salt, the structure may show the parent alone.

For `CCS(=O)(=O)c1ccc(OC)c(Nc2ncc(F)c(N(C)c3ccc4c(C)n[nH]c4c3)n2)c1` [Example 1, N^2-[5-(ethylsulfonyl)-2-methoxyphenyl]-5-fluoro-N^4-methyl-N^4-(3-methyl-1H-indazol-6-yl)-2,4-pyrimidinediamine], the IC50 is 201 to 500 nM. `CNS(=O)(=O)c1ccc(OC)c(Nc2ncc(F)c(N(C)c3ccc4c(C)n[nH]c4c3)n2)c1` [Example 2, 3-({5-fluoro-4-[methyl(3-methyl-1H-indazol-6-yl)amino]-2-pyrimidinyl}amino)-4-methoxy-N-methylbenzenesulfonamide]: the IC50 was in the range of 1 to 200 nM. Regarding `Cc1n[nH]c2cc(N(C)c3nc(Nc4cccc(CS(C)(=O)=O)c4)ncc3F)ccc12` [Example 3, 5-fluoro-N^4-methyl-N^4-(3-methyl-1H-indazol-6-yl)-N^2-{3-[(methylsulfonyl)methyl]phenyl}-2,4-pyrimidinediamine], the IC50 was 1 to 200 nM. Consider `COc1ccc(S(=O)(=O)NC(C)C)cc1Nc1ncc(F)c(N(C)c2ccc3c(C)n[nH]c3c2)n1` [Example 4, 3-({5-fluoro-4-[methyl(3-methyl-1H-indazol-6-yl)amino]-2-pyrimidinyl}amino)-N-isopropyl-4-methoxybenzenesulfonamide], for which the IC50 was 201 to 500 nM. Under `COc1ccc(S(=O)(=O)C(C)C)cc1Nc1ncc(F)c(N(C)c2ccc3c(C)n[nH]c3c2)n1` [Example 5, 5-fluoro-N^2-[5-(isopropylsulfonyl)-2-methoxyphenyl]-N^4-methyl-N^4-(3-methyl-1H-indazol-6-yl)-2,4-pyrimidinediamine] stands 201 to 500 nM; under `Cc1ccc(Nc2ncc(F)c(N(C)c3ccc4c(C)n[nH]c4c3)n2)cc1NS(C)(=O)=O` [Example 6, N-[5-({5-fluoro-4-[methyl(3-methyl-1H-indazol-6-yl)amino]-2-pyrimidinyl}amino)-2-methylphenyl]methanesulfonamide], 201 to 500 nM; under `Cc1n[nH]c2cc(N(C)c3nc(Nc4ccc(S(C)(=O)=O)cc4)ncc3F)ccc12` [Example 7, 5-fluoro-N^4-methyl-N^4-(3-methyl-1H-indazol-6-yl)-N^2-[4-(methylsulfonyl)phenyl]-2,4-pyrimidinediamine], 201 to 500 nM. Next, `CCc1n[nH]c2cc(N(C)c3nc(Nc4cccc(CS(C)(=O)=O)c4)ncc3F)ccc12` [Example 8, N^4-(3-ethyl-1H-indazol-6-yl)-5-fluoro-N^4-methyl-N^2-{3-[(methylsulfonyl)methyl]phenyl}-2,4-pyrimidinediamine]: 201 to 500 nM.

As for `Cc1n[nH]c2cc(N(C)c3nc(Nc4ccc(S(N)(=O)=O)cc4)ncc3F)ccc12` [Example 9, 4-({5-fluoro-4-[methyl(3-methyl-1H-indazol-6-yl)amino]-2-pyrimidinyl}amino)benzenesulfonamide], the IC50 fell in the range of 201 to 500 nM. Regarding `CCN(c1ccc2c(C)n[nH]c2c1)c1nc(Nc2cc(S(C)(=O)=O)ccc2OC)ncc1F` [Example 10, N^4-ethyl-5-fluoro-N^2-[2-methoxy-5-(methylsulfonyl)phenyl]-N^4-(3-methyl-1H-indazol-6-yl)-2,4-pyrimidinediamine], the IC50 is above 1000 nM. `CNS(=O)(=O)Cc1ccc(Nc2ncc(F)c(N(C)c3ccc4c(C)n[nH]c4c3)n2)cc1` [Example 11, [4-({5-fluoro-4-[methyl(3-methyl-1H-indazol-6-yl)amino]-2-pyrimidinyl}amino)phenyl]-N-methylmethanesulfonamide]: the IC50 fell in the range of 201 to 500 nM. With `Cc1n[nH]c2cc(N(C)c3nc(Nc4cccc(CS(=O)(=O)C(C)C)c4)ncc3F)ccc12` [Example 12, 5-fluoro-N^2-{3-[(isopropylsulfonyl)methyl]phenyl}-N^4-methyl-N^4-(3-methyl-1H-indazol-6-yl)-2,4-pyrimidinediamine], the IC50 was in the range of 1 to 200 nM.

Consider `COc1ccc(C(N)=O)cc1Nc1ncc(F)c(N(C)c2ccc3c(C)n[nH]c3c2)n1` [Example 13, 3-({5-fluoro-4-[methyl(3-methyl-1H-indazol-6-yl)amino]-2-pyrimidinyl}amino)-4-methoxybenzamide], for which the IC50 was in the range of 201 to 500 nM.

On to `COc1cc(S(N)(=O)=O)ccc1Nc1ncc(F)c(N(C)c2ccc3c(C)n[nH]c3c2)n1` [Example 14, 4-({5-fluoro-4-[methyl(3-methyl-1H-indazol-6-yl)amino]-2-pyrimidinyl}amino)-3-methoxybenzenesulfonamide], for which the IC50 lay in the range of 1 to 200 nM. On to `Cc1n[nH]c2cc(Nc3ncnc(Nc4cccc(CS(C)(=O)=O)c4)n3)ccc12` [Example 15, N^2-(3-methyl-1H-indazol-6-yl)-N^4-{3-[(methylsulfonyl)methyl]phenyl}-1,3,5-triazine-2,4-diamine trifluoroacetate], for which the IC50 lay in the range of 501 to 1000 nM. Next, `Cc1n[nH]c2cc(N(C)c3ncnc(Nc4cccc(CS(C)(=O)=O)c4)n3)ccc12` [Example 16, N^2-methyl-N^2-(3-methyl-1H-indazol-6-yl)-N^4-{3-[(methylsulfonyl)methyl]phenyl}-1,3,5-triazine-2,4-diamine hydrochloride]: 201 to 500 nM; `CCS(=O)(=O)c1ccc(OC)c(Nc2ncnc(N(C)c3ccc4c(C)n[nH]c4c3)n2)c1` [Example 17, N^2-[5-(ethylsulfonyl)-2-methoxyphenyl]-N^4-methyl-N^4-(3-methyl-1H-indazol-6-yl)-1,3,5-triazine-2,4-diamine hydrochloride]: 501 to 1000 nM; `Cc1ccc(Nc2ncnc(N(C)c3ccc4c(C)n[nH]c4c3)n2)cc1NS(C)(=O)=O` [Example 18, N-[2-methyl-5-({4-[methyl(3-methyl-1H-indazol-6-yl)amino]-1,3,5-triazin-2-yl}amino)phenyl]methanesulfonamide]: 501 to 1000 nM.

For the compound `Cc1n[nH]c2cc(N(C)c3ncnc(Nc4cccc(S(C)(=O)=O)c4)n3)ccc12` [Example 19, N^2-methyl-N^2-(3-methyl-1H-indazol-6-yl)-N^4-[3-(methylsulfonyl)phenyl]-1,3,5-triazine-2,4-diamine], the IC50 lay in the range of 201 to 500 nM. For `CC(=O)Nc1ccc(Nc2ncnc(N(C)c3ccc4c(C)n[nH]c4c3)n2)cc1` [Example 20, N-[4-({4-[methyl(3-methyl-1H-indazol-6-yl)amino]-1,3,5-triazin-2-yl}amino)phenyl]acetamide hydrochloride], the IC50 was above 1000 nM. Turning to `Cc1n[nH]c2cc(N(C)c3ccnc(Nc4cccc(S(N)(=O)=O)c4)n3)ccc12` [Example 21, 3-({4-[methyl(3-methyl-1H-indazol-6-yl)amino]-2-pyrimidinyl}amino)benzenesulfonamide hydrochloride], the IC50 lay within 1 to 200 nM. As for `CCS(=O)(=O)c1ccc(OC)c(Nc2nccc(N(C)c3ccc4c(C)n[nH]c4c3)n2)c1` [Example 22, N^2-[5-(ethylsulfonyl)-2-methoxyphenyl]-N^4-methyl-N^4-(3-methyl-1H-indazol-6-yl)-2,4-pyrimidinediamine], the IC50 is 1 to 200 nM.

For the compound `Cc1n[nH]c2cc(N(C)c3ccnc(Nc4cccc(CS(C)(=O)=O)c4)n3)ccc12` [Example 23, N^4-methyl-N^4-(3-methyl-1H-indazol-6-yl)-N^2-{3-[(methylsulfonyl)methyl]phenyl}-2,4-pyrimidinediamine], the IC50 fell in the range of 1 to 200 nM. Next, `Cc1n[nH]c2cc(N(C)c3ccnc(Nc4cccc(S(=O)(=O)NC(C)C)c4)n3)ccc12` [Example 24, N-isopropyl-3-({4-[methyl(3-methyl-1H-indazol-6-yl)amino]-2-pyrimidinyl}amino)benzenesulfonamide]: 1 to 200 nM; `Cc1n[nH]c2cc(N(C)c3ccnc(Nc4cccc(S(=O)(=O)NC5CC5)c4)n3)ccc12` [Example 25, N-cyclopropyl-3-({4-[methyl(3-methyl-1H-indazol-6-yl)amino]-2-pyrimidinyl}amino)benzenesulfonamide]: 1 to 200 nM; `CCN(c1ccc2c(C)n[nH]c2c1)c1ccnc(Nc2cc(S(=O)(=O)CC)ccc2OC)n1` [Example 26, N^4-ethyl-N^2-[5-(ethylsulfonyl)-2-methoxyphenyl]-N^4-(3-methyl-1H-indazol-6-yl)-2,4-pyrimidinediamine]: 201 to 500 nM. Next, `Cc1n[nH]c2cc(N(C)c3ccnc(Nc4cccc(NS(C)(=O)=O)c4)n3)ccc12` [Example 27, N-[3-({4-[methyl(3-methyl-1H-indazol-6-yl)amino]-2-pyrimidinyl}amino)phenyl]methanesulfonamide]: 1 to 200 nM. Next, `Cc1n[nH]c2cc(N(C)c3ccnc(Nc4cccc(CS(=O)(=O)C(C)C)c4)n3)ccc12` [Example 28, N^2-{3-[(isopropylsulfonyl)methyl]phenyl}-N^4-methyl-N^4-(3-methyl-1H-indazol-6-yl)-2,4-pyrimidinediamine]: 1 to 200 nM; `Cc1n[nH]c2cc(N(C)c3ccnc(Nc4ccc(CS(=O)(=O)C(C)C)cc4)n3)ccc12` [Example 29, N^2-{4-[(isopropylsulfonyl)methyl]phenyl}-N^4-methyl-N^4-(3-methyl-1H-indazol-6-yl)-2,4-pyrimidinediamine]: 1 to 200 nM; `COc1ccc(S(=O)(=O)CC(C)C)cc1Nc1nccc(Nc2ccc3c(C)n[nH]c3c2)n1` [Example 30, N^2-[5-(isobutylsulfonyl)-2-methoxyphenyl]-N^4-(3-methyl-1H-indazol-6-yl)-2,4-pyrimidinediamine]: 501 to 1000 nM.

The values are drawn from patent US8114885B2, “Chemical compounds” (GlaxoSmithKline LLC, priority 2000, dated 2012).
